“And” between values parts separate entries of the source, which are not always exact repeats. Identical values can stand only once. Counter-ions that a name gives are not always drawn.
What was measured:
MRSA [1] = assay: MIC against MRSA (as defined by CLSI); assay type: cell-based; conditions: Staphylococcus aureus, FIG. 25
Procedure: To determine the MIC of the polyamine chains alone and the synthesized compounds against MRSA and P. aeruginosa ATCC 27853, a modified protocol from the Clinical and Laboratory Standards Institute (CLSI) guideline M26-A was used. […] All data was collected using cation adjusted MHB for standardization.
As mentioned, MRSA and P. aeruginosa ATCC 27853 were grown on Columbia blood agar plates prior to experimentation. From the blood agar plates, a 0.5 McFarland standard was made of each isolate. This equated to approximately 5×10^7 cells/mL for the MRSA isolate and approximately 3×10^7 cells/mL for the P. aeruginosa ATCC 27853 isolate. Of the 0.5 McFarland stock solution, 50 μL were added to MHB. […] All tests were performed such that a final volume of 5 mL of MHB were obtained. This provided a final bacterial concentration of approximately 5×10^5 cells/mL.
Each sample was incubated in glass test tubes at 37° C. for 24 hours, then plated in duplicate on tryptic soy agar (TSA) using a 10-fold dilution series. TSA plates were further incubated 24 hours at 37° C. The number of colony forming units (CFU) that grew were counted in order to calculate the number of bacteria that were present per mL in the original MHB solution.

P. aeruginosa biofilms = assay: MBEC, MBEC Inoculation Tray (Innovotech), to 10^2 CFU/peg in 24 hours; assay type: cell-based; conditions: Pseudomonas aeruginosa; Table 3A c5; group head missing, probably MBEC; read-out: MICs (μg/mL): P. aeruginosa (second P. aeruginosa)
Text: To determine the MBEC of each polyamine compound, the MBEC Inoculation Tray by Innovotech, formerly known as the Calgary biofilm device, was used. Within this device, biofilms grow on the surface of polystyrene pegs, 96 of which are attached to a lid. These pegs are inserted into a flat bottom 96-well plate. In this instance, the MBEC of a molecule was defined as the concentration of compound (in μg/mL) required to reduce 10^5 or 10^6 CFU/peg (biofilm levels varied by isolate) to 10^2 CFU/peg in a 24-hour period.
Following the manufacturer's guidelines, biofilms were grown on the surface of each peg by first making a 0.5 McFarland of each isolate. The 0.5 McFarland was diluted 1:100 in CAMHB. Into each well of a flat bottom 96-well plate, 150 μL of broth were pipetted. The plate was shaken at 100 rpm for 24 hours (P. aeruginosa and A. baumannii) or 48 hours (MRSA). The pegs were then placed into a separate flat bottom 96-well plate for 10 seconds with 200 μL of phosphate buffered saline (PBS) in each well to remove nonadherent cells. The lid was then placed into a 96-well plate that contained varying concentrations of antimicrobial with 200 μL per well. The plate was incubated for 24 hours at 37° C. after which time 100 μL of broth were plated on TSA. TSA plates were incubated 24 hours at 37° C. and the number of CFU counted to calculate the CFU/peg. […]

[2] = tested on: various bacterial cell cultures; assay: Antimicrobial activity of polyamines in hydrogel on agar lawns; assay type: cell-based; conditions: 0.5% CZ compound in 0.5% sodium hyaluronate gel, 500 uL on TSA lawn, 37 C for 24 hours
Procedure: A 0.5 McFarland standard of each bacteria was made, then individual lawns of bacteria spread onto the surface of tryptic soy agar (TSA). 500 uL of the suspended gel were placed on the center of each lawn. Plates were incubated at 37 C for 24 hours, then imaged. Images of the resulting gels are shown in FIGS. 30A to 30I show the effects of the polyamines CZ-86, CZ-100, and CZ-110 on various bacterial cell cultures.
The hydrogel that was used for those images is a LifeCore gel with 1% sodium hyaluronate (1% Sodium Hyaluronate Solution Part #82). The CZ compound was suspended in water at 1% (w/w) concentration and combined with the LifeCore gel 1:1 for a final product that contained 0.5% sodium hyaluronate and 0.5% CZ compound.

MRSA biofilm = assay: MBEC assay (Calgary Biofilm Device), eradication of 100% of detectable biofilm (Example 2); assay type: cell-based, Staphylococcus aureus; conditions: eradicate 100% of detectable biofilm
Procedure: In addition to determining the MIC, the minimum biofilm eradication concentration (MBEC) of PBC-51 was also determined. The MBEC was determined using the MBEC assay, formerly known as the Calgary Biofilm Device, developed by Innovotech. In this instance, the MBEC was defined as the amount of antimicrobial required to eradicate 100% of detectable biofilm after being grown in the MBEC device. To grow the biofilms within this device, 150 μL of solution containing a concentration of 10^5 cells/mL were inoculated into each well of a 96-well plate. A lid containing 96 pegs was placed onto the plate and incubated for 24 hours at 37° C. while being shaken at 110 rpm. Biofilms developed on the surface of the polystyrene pegs within the 96-well plate. After 24 hours, each peg contained between 10^5 and 10^6 cells in well-established biofilms. The lid with pegs was transferred to a 96-well plate that contained 200 μL of varying concentrations of the compound and was incubated at 37° C. for an additional 24 hours. The plate was then sonicated, and the biofilms quantified using a 10-fold dilution series to determine the MBEC.

MRSA [3] = assay: MIC, microdilution CLSI M26-A (Example 2); assay type: cell-based; conditions: Staphylococcus aureus, 24 h, read-out: MIC (μg/mL/μM)
Procedure: The second test determined the minimum inhibitory concentration (MIC) of the compound against MRSA and P. aeruginosa ATCC 27853. […] This definition was consistent with the Clinical and Laboratory Standards Institute (CLSI). More specifically, the microdilution method as outlined in the M26-A CLSI guideline was used. All tests were performed with cation adjusted Mueller Hinton broth.

Question: Which results are given for NCCCNCCCNCc1ccccc1 [CZ-7, benzylnorspermidine]?
Answer: MIC (MRSA [1]): > 1200 µg/mL; MIC (P. aeruginosa biofilms): > 5000 µg/mL

Question: CC(C)CNCCCNCCCNCc1cc(CNCCCNCCCNCC(C)C)cc(-c2ccccc2)c1 [CZ-86, N^1,N^1′-([1,1′-biphenyl]-3,5-diylbis(methylene))bis(N^3-(3-(isobutylamino)propyl)propane-1,3-diamine), hydrochloride salt] was tested. Which “zones of inhibition in bacterial lawns” value [2] did it give?
Answer: The value was “created zones of inhibition”.

Question: Which “MBEC (μg/mL/μM)” value (MRSA biofilm) does the source give for CN[C@H](CC(C)C)C(=O)N[C@H]1C(=O)N[C@@H](CC(N)=O)C(=O)N[C@H]2C(=O)N[C@H]3C(=O)N[C@H](C(=O)N[C@H](C(=O)O)c4cc(O)cc(O)c4-c4cc3ccc4O)[C@H](O)c3ccc(c(Cl)c3)Oc3cc2cc(c3O[C@@H]2O[C@H](CO)[C@@H](O)[C@H](O)[C@H]2O[C@H]2C[C@](C)(N)[C@H](O)[C@H](C)O2)Oc2ccc(cc2Cl)[C@H]1O [vancomycin, reference compound] here?
Answer: Its value is > 500 μg/mL and > 336.50 μM.

Question: What about the MIC (MRSA [3]) of the same compound?
Answer: The MIC was 10 µg/mL and 6.73 µM.

Source: patent publication US10440955B2, “Methods comprising a biocidal polyamine” (Curza Global, LLC, priority 2013, dated 2019)
